In US7361682B2, “Indole derivatives as H3 inverse agonists” (Hoffmann-La Roche Inc., priority 2004, dated 2008) one finds Ki data, which are given here for three compounds.

T1 sequence (Q9Y5N1 whole entry): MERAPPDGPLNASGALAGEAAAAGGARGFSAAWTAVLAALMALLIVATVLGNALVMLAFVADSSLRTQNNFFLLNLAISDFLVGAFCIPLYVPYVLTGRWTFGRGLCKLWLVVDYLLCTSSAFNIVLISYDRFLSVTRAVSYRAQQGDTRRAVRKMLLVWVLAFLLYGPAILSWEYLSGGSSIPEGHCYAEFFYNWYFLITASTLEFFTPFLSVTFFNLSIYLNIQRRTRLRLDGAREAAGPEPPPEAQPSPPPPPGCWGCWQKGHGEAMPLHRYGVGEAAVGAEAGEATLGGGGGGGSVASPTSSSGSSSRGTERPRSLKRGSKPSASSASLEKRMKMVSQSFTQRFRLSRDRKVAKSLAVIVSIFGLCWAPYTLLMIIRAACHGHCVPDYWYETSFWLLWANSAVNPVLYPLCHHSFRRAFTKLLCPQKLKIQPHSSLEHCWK

This assay has as its target T1, histamine 3 receptor (H3R) (Homo sapiens, UniProt Q9Y5N1).
T1 construct: expressed in transfected cells; host or cells: CHO cells
Nature of the assay: Binding assay with 3H-(R)α-methylhistamine (competition binding, membranes of human HR3-CHO cell line). To be noted: competition against 3H(R)α-Methylhistamine (1 nM), membrane of the human HR3-CHO cell line; Ki calculated from IC50 by Cheng-Prusoff equation. How it is done:
Binding assay with ^3H-(R)α-methylhistamine
Saturation binding experiments were performed using HR^3—CHO membranes prepared as described in Takahashi, K, Tokita, S., Kotani, H. (2003) J. Pharmacol. Exp. Therapeutics 307, 213-218.
An appropriate amount of membrane (60 to 80 μg protein/well) was incubated with increasing concentrations of ^3H(R)α-Methylhistamine di-hydrochloride (0.10 to 10 nM). Non specific binding was determined using a 200 fold excess of cold (R)α-Methylhistamine dihydrobromide (500 nM final concentration). The incubation was carried out at room temperature (in deep-well plates shaking for three hours). The final volume in each well was 250 μl. The incubation was followed by rapid filtration on GF/B filters (pre-soaked with 100 μl of 0.5% PEI in Tris 50 mM shaking at 200 rpm for two hours). The filtration was made using a cell-harvester and the filter plates were then washed five times with ice cold washing buffer containing 0.5 M NaCl. After harvesting, the plates were dried at 55° C. for 60 min, then we added scintillation fluid (Microscint 40, 40 microl in each well) and the amount of radioactivity on the filter was determined in Packard top-counter after shaking the plates for two hours at 200 rpm at room temperature.
Binding Buffer: 50 mM Tris-HCl pH 7.4 and 5 mM MgCl2×6H2O pH 7.4. Washing Buffer: 50 mM Tris-HCl pH 7.4 and 5 mM MgCl2×6H2O and 0.5 M NaCl pH 7.4.
Indirect measurement of affinity of H3R inverse agonists: twelve increasing concentrations (ranging from 10 μM to 0.3 nM) of the selected compounds were always tested in competition binding experiments using membrane of the human HR3—CHO cell line. An appropriate amount of protein, e.g. approximately 500 cpm binding of RAMH at Kd, were incubated for 1 hour at room temperature in 250 μl final volume in 96-well plates in presence of ^3H(R)α-Methylhistamine (1 nM final concentration=Kd). […]
All compounds were tested at a single concentration in duplicates. […] Ki's were calculated from IC50 based on Cheng-Prusoff equation (Cheng, Y, Prusoff, W H (1973) Biochem Pharmacol 22, 3099-3108).
What is called Ki is the equilibrium dissociation constant of an inhibitor or competing ligand from its target. For `CC(C)N1CCC(Oc2ccc3[nH]c(C(=O)N4CCOCC4)cc3c2)C1` (stereo not drawn) [Example 2, [5-(1-Isopropyl-pyrrolidin-3-yloxy)-1H-indol-2-yl]-morpholin-4-yl-methanone], the Ki was 23 nM.

With `CC(C)N1CCN(C(=O)c2cc3cc(OCCC4CCCN4C)ccc3[nH]2)CC1` (stereo not drawn) [Example 117, (4-Isopropyl-piperazin-1-yl)-{5-[2-(1-methyl-pyrrolidin-2-yl)-ethoxy]-1H-indol-2-yl}-methanone], the Ki was 77 nM.

As to `CC(C)N1CCC(Oc2ccc3cc(C(=O)N4CCSCC4)[nH]c3c2)CC1` [Example 140, [6-(1-isopropyl-piperidin-4-yloxy)-1H-indol-2-yl]-thiomorpholin-4-yl-methanone], the Ki was 93 nM.
